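In this assay, cells in 96-well plates receive the compound at five concentrations for 48 hours. Endpoints are linearly interpolated between the surrounding concentrations. Abbreviation: GI50, concentration required for 50% inhibition of growth.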 Active and inactive are the calls of the source. No stated cut-off is given here; in the data, active = GI50 up to about 1.1 µM and inactive = higher.
Assays:
Test in all cases: inhibition of tumour cell growth, NCI panel, 48 h
DMS-114 = system: DMS-114
RXF 631 = system: RXF 631
LXFL 529 = system: LXFL 529
HOP-18 = system: HOP-18
SNB-78 = system: SNB-78
DMS-273 = system: DMS-273
DLD-1 = system: DLD-1
XF498 = system: XF498
M19-MEL = system: M19-MEL

Row | Structure (SMILES) | GI50 (DMS-114) | GI50 (RXF 631) | GI50 (LXFL 529) | GI50 (HOP-18) | GI50 (SNB-78) | GI50 (DMS-273) | GI50 (DLD-1) | GI50 (XF498) | GI50 (M19-MEL)
1 | CN(/N=C/c1cccc2cccnc12)c1c([N+](=O)[O-])cc([N+](=O)[O-])cc1[N+](=O)[O-] | 6.52 µM (inactive) | > 100 µM (inactive) | > 100 µM (inactive) | > 100 µM (inactive) | > 100 µM (inactive) | 7.6 µM (inactive) | > 100 µM (inactive) | > 100 µM (inactive) | > 100 µM (inactive)
2 | CC1C2CC=CC(=O)[C@@]2(C)CCC12OCCO2 (stereo partly specified) | > 100 µM (inactive) |  | > 100 µM (inactive) |  | > 100 µM (inactive) | > 100 µM (inactive) | > 100 µM (inactive) |  | > 100 µM (inactive)
3 | C/C(CCn1[nH]c(=O)ccc1=O)=N\Nc1ccc([N+](=O)[O-])cc1[N+](=O)[O-] | 81.8 µM (inactive) | > 100 µM (inactive) | 14.6 µM (inactive) | > 100 µM (inactive) | > 100 µM (inactive) | 25.4 µM (inactive) | > 100 µM (inactive) | > 100 µM (inactive) | > 100 µM (inactive)
4 | COc1cc2cc(OC(C)=O)c3cc4c(cc3c2c(OC)c1OC)OCO4 | > 100 µM (inactive) | > 100 µM (inactive) | > 100 µM (inactive) | > 100 µM (inactive) | > 100 µM (inactive) | > 100 µM (inactive) | > 100 µM (inactive) | > 100 µM (inactive) | > 100 µM (inactive)
5 | CCC(=O)N1C(=S)SC[C@H]1C(=O)OC | > 100 µM (inactive) |  | > 100 µM (inactive) | > 100 µM (inactive) | > 100 µM (inactive) | > 100 µM (inactive) | > 100 µM (inactive) | 7.4 µM (inactive) | > 100 µM (inactive)
6 | COc1ccc2cc1Oc1ccc(cc1)CC1c3cc(c(OC)cc3CCN1C)Oc1c3c(cc4c1C(C2)N(C)CC4)OCO3 (stereo unspecified) | 5.74 µM (inactive) | 13.7 µM (inactive) | 13 µM (inactive) |  | 13.9 µM (inactive) | 3.44 µM (inactive) | 17 µM (inactive) | 9.55 µM (inactive) | 3.85 µM (inactive)
7 | O=C1/C(=C/c2ccc(Br)cc2)CCC/C1=C\c1ccc(Br)cc1 | 13.2 µM (inactive) | 5.05 µM (inactive) | 3.82 µM (inactive) | 13.6 µM (inactive) | 18.7 µM (inactive) | 3.57 µM (inactive) | 5.04 µM (inactive) | 21.8 µM (inactive) | 4.3 µM (inactive)
8 | CCC1(c2ccncc2)CCC(=O)NC1=O (stereo unspecified) [ROGLETIMIDE] | > 100 µM (inactive) | > 100 µM (inactive) | > 100 µM (inactive) |  | > 100 µM (inactive) |  | > 100 µM (inactive) | > 100 µM (inactive) | > 100 µM (inactive)
9 | Nc1nc2[nH]cnc2c(=S)[nH]1 [THIOGUANINE] | 0.849 µM (active) | 0.527 µM (active) | 8.45 µM (inactive) | 5.64 µM (inactive) | 2.23 µM (inactive) | 0.445 µM (active) | 0.962 µM (active) | 1.09 µM (active) | 9.82 µM (inactive)
10 | COC(=O)C1C(=O)CC2CCCCC21 (stereo unspecified) | > 100 µM (inactive) |  | > 100 µM (inactive) |  | > 100 µM (inactive) | > 100 µM (inactive) | > 100 µM (inactive) |  | > 100 µM (inactive)
11 | CC1(C=O)C(=O)CCC2(C)C3CC(=O)OC3CCC12 (stereo unspecified) | > 100 µM (inactive) |  | > 100 µM (inactive) | > 100 µM (inactive) |  | > 100 µM (inactive) | > 100 µM (inactive) |  | > 100 µM (inactive)
12 | O=C1C=CC(CC(=O)c2ccc3ccccc3c2)O1 (stereo unspecified) |  |  | 18.4 µM (inactive) | 35 µM (inactive) | 34.9 µM (inactive) | 20 µM (inactive) | 28.7 µM (inactive) | 66.5 µM (inactive) | 43.5 µM (inactive)
13 | Nc1nncs1 | 1960 µM (inactive) |  |  | 3030 µM (inactive) | 3240 µM (inactive) | 450 µM (inactive) | 641 µM (inactive) | 879 µM (inactive) | 1090 µM (inactive)
14 | O=C(O)c1ccc(C2COc3ccc(Cl)cc3C2)cc1 (stereo unspecified) | > 100 µM (inactive) |  | > 100 µM (inactive) | > 100 µM (inactive) | > 100 µM (inactive) | > 100 µM (inactive) | > 100 µM (inactive) | > 100 µM (inactive) | > 100 µM (inactive)
15 | Cc1ccccc1NC(=O)C1C(=O)N(c2ccccc2C)C(=O)/C1=N\N (stereo unspecified) | > 100 µM (inactive) | > 100 µM (inactive) | > 100 µM (inactive) | > 100 µM (inactive) | > 100 µM (inactive) |  | > 100 µM (inactive) |  | > 100 µM (inactive)
16 | Clc1ccccc1CN1COc2c(ccc3cccnc23)C1 | 2.67 µM (inactive) |  |  |  | 3.37 µM (inactive) | 3.42 µM (inactive) | 4.66 µM (inactive) | 9.68 µM (inactive) | 4.14 µM (inactive)
